3 compounds from patent publication US4138590A, “Prostaglandin derivatives” (American Home Products Corporation, priority 1977, dated 1979) can be followed below.

The structures appear in SMILES notation.

For assay [1], the system named is Human blood platelets. As to the kind of experiment: Blood Platelet Aggregation (ADP induced, modification of Born and Cross). It is filed as cell-based. As to conditions: human PRP, ADP 2-4 μM. As to the method: Reference: Modification of Born, G.V.R., and Cross, M. J., J. Physiol., 168, 178-195 (1963).
Test Object: Human blood platelets.
Procedure: Platelet aggregation is the initial step in thrombus formation and it is considered that compounds which prevent aggregation or reduce platelet adhesiveness may inhibit the initiation of the arteriosclerotic process. The effect of drugs on aggregation is measured in platelet rich plasma (PRP) containing adenosine diphosphate (ADP) which markedly increases aggregation in vitro and may be a physiological agent for doing so in vivo.
Human blood is collected from fasted normal blood donors in siliconized 50 ml. Vacutainers that contain 3.8% sodium citrate. Centrifugation at 500 g. for 3 minutes at 5° C. separates the red blood cells from the PRP. The supernatant PRP is pipetted off and the remainder is centrifuged at 1000 g. for 10 minutes at 25° C. to obtain platelet poor plasma for standarization of the automated Payton aggregometer. In the running of the platelet aggregation test a cell containing 1.0 ml. of PRP is stirred at 1,100 rpm and the test compound is added in 0.2 ml. of buffered saline to give an initial concentration of 5 × 10^-3 M, or 5 × 10^-4 M. After 3 minutes, a concentration of ADP predetermined to yield marked platelet aggregation (2 to 4 μM) is added in 0.1 ml. of buffered saline. The curve of light transmission at 610 mμ is followed for 6 minutes. Compounds found to be active at the initial concentration are run at lower concentrations.
Standard Compound: 2-4 μM ADP-Reference Compound.

The subject of assay [2] is bronchoconstricting effects of a standard dose of acetylcholine. As to the kind of experiment: Evaluation of Bronchodilator Activity (aerosol inhalation, method of Rosenthale et al.). The assay is classed as in vivo. The settings on record: guinea pig, acetylcholine i.v. dose producing ca. 30% bronchoconstriction. The text has this: In using the compounds of the invention to produce bronchodilating effects in warm-blooded animals, they may be administered in a variety of dosage forms: oral, injectable, and aerosol inhalation. Aerosol inhalation is a preferred method because of its rapid onset of action, great potency, and specificity of action. The particular dosage to obtain the bronchodilating effect will vary with the particular compound employed, the particular animal involved, and the degree of bronchodilation desired. In the guinea pig, by aerosol inhalation, the dose to produce bronchodilation is from about 0.15 micrograms to about 25 micrograms, and preferably from about 0.15 to about 15 micrograms. The bronchodilation produced upon aerosol inhalation can be observed by the method of Rosenthale et al., J. Pharmacol. Exp. Ther., 178, 541 (1971). Using this procedure the following results were obtained:
*The dose (i.v.) of acetylcholine which produces a ca. 30%

By inhibition is commonly meant the drop in the measured response relative to a control, in per cent. Compound `CCCCC[C@H](O)/C=C/[C@H]1C(=O)C=C(c2ccccc2)[C@@H]1C/C=C\CCCC(=O)O` [7-{2β-[(3S)-3-Hydroxy-trans-1-Octenyl]-3-Oxo-5-Phenyl-4-Cyclopenten-1α-yl}-cis-5-Heptenoic Acid] displayed an inhibition at 18 µM in assay [1] (concentration 1.8 × 10^-5 M) of 22%.
As to `C#CC1=CC(=O)[C@H](/C=C/[C@@H](O)CCCCC)[C@H]1C/C=C\CCCC(=O)O` [7-{5β-[(3S)-3-Hydroxy-trans-1-Octenyl]-2-Ethynyl-4-Oxo-2-Cyclopenten-1α-yl}-cis-5-Heptenoic Acid], the inhibition at 22 µM in assay [1] (concentration 2.2 × 10^-5 M) turned out to be 36%.
Turning to `CCCCC[C@H](O)/C=C/[C@H]1C(=O)C=C(C)[C@@H]1C/C=C\CCCC(=O)O` [7-{5β-[(3S)-3-Hydroxy-trans-1-Octenyl]-2-Methyl-4-Oxo-2-Cyclopenten-1α-yl}-cis-5-Heptenoic Acid], the “% Inhibition of the Bronchoconstricting effects of a standard dose of acetylcholine” value in assay [2] (dose 1.5 μg) stood at 36%; in assay [2] (dose 15 μg), 78%. In assay [1] (concentration 5.7 × 10^-9 M), this compound came in with an inhibition at 0.0057 µM of 56%.
